Assay results taken from patent US10717746B2, “Chemical compounds” (ASTRAZENECA AB, priority 2015, dated 2020).

Key:
[1] = test system: phosphorylation of RNA Polymerase II (RNAPII) at the Ser2 site in MCF7 cells; experiment: MCF7 pSer2 RNAPII MOA assay (immunofluorescence); assay type: cell-based; details: Homo sapiens, MCF7, 6 h, 6-hr treatment, read-out: p-Ser 2 RNAPII (IC50)
Procedure, shortened: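 Phospho-Ser2 RNAPII was measured by immunofluorescence (Alexa Fluor 488, DAPI counterstain) with plate cytometer read-out. Before staining, cells were fixed with paraformaldehyde and permeabilized with Triton. Exposure was 6 h at 37° C. to CDK9 inhibitors over 7 points (3 μM to 0.004 μM) in MCF7 cells seeded at 2500/well the previous day.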

MV411 cells = experiment: MV411 caspase activity assay (Caspase-Glo 3/7); assay type: cell-based; details: Homo sapiens, MV4-11, 6 h, 6-hr treatment, caspase 3/7 induction
Procedure, shortened: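 MV411 AML cells (3000/well) were plated overnight, then treated with compound for 6 h at 37 °C. Caspase-3/7 activity was read as luminescence after 30 min with Caspase-Glo 3/7 reagent at room temperature.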

CDK9/CycT1 [2] = molecular target: T1, CDK9/CycT1 (Homo sapiens (Human), UniProt P50750); experiment: CDK9 kinase assay, high ATP concentration (5 mM ATP); assay type: biochemical; details: 1.5 nM CDK9, read-out: CDK9 High ATP conc. (IC50)
T1 sequence (P50750 whole entry): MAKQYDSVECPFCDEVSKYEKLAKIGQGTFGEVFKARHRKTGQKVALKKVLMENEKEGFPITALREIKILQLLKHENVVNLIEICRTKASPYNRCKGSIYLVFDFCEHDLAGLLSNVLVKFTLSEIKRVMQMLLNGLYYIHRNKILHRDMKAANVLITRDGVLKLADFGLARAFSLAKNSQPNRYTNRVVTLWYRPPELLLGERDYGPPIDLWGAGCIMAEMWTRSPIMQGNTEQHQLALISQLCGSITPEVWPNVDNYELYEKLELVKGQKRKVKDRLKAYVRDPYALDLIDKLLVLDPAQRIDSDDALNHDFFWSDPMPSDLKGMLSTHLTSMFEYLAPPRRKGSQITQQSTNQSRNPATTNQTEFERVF
T1 sequence (O60563 whole entry partner): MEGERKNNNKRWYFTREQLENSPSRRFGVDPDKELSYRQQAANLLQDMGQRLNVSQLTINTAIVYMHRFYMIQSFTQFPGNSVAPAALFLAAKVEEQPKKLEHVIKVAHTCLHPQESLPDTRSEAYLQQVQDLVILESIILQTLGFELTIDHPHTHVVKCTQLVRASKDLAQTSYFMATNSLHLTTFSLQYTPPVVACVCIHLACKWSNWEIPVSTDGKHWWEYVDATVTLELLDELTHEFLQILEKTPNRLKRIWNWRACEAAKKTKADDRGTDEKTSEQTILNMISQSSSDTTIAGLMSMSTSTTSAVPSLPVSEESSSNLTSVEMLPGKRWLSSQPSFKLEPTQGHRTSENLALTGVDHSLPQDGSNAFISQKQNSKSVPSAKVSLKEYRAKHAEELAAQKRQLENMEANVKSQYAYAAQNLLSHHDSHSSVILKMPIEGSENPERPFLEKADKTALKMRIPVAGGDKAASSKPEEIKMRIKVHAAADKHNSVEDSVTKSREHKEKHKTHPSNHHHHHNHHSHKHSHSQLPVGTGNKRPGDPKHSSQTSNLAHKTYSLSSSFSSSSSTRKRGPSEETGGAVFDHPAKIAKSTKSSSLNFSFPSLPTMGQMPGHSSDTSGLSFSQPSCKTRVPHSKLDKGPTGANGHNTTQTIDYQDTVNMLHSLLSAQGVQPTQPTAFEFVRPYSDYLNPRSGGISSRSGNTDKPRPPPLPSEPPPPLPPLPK
Procedure, shortened: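 Caliper mobility-shift read-out of phosphorylated vs unphosphorylated FITC-peptide (1.5 μM), giving percent turnover. Final 1.5 nM CDK9/CycT1 and 5 mM ATP in 50 mM HEPES pH 7.2, 1 mM DTT, 10 mM MgCl2; compound preincubated 15 min, reaction 90 min at 25° C, stopped with EDTA.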

CDK9/CycT1 [3] = molecular target: T1, CDK9/CycT1; experiment: CDK9 kinase assay, ATP concentration at Km (mobility shift, Caliper LC3000); assay type: biochemical; details: 6 μM ATP, 3 nM CDK9/CycT1; read-out: CDK9 ATP conc. at Km (IC50)
Procedure, shortened: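 […], compound sat 15 min with enzyme mix: 3 nM CDK9/CycT1, 1.5 µM FITC-GSRTPMY substrate, 6 µM ATP, pH 7.2 HEPES buffer.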

Row | Compound | IC50 [1] | IC50 (MV411 cells) | IC50 (CDK9/CycT1 [2]) | IC50 (CDK9/CycT1 [3])
1 | Cc1cnc(NC(=O)[C@H]2CCC[C@@H](NC(=O)C3COC3)C2)cc1-c1cnn2c1CC(C)(C)C2 [Example 76, N-((1R,3S)-3-((4-(5,5-dimethyl-5,6-dihydro-4H-pyrrolo[1,2-b]pyrazol-3-yl)-5-methylpyridin-2-yl)carbamoyl)cyclohexyl)oxetane-3-carboxamide] | 38 nM | 36 nM | 9 nM | < 3 nM
2 | CC(=O)N[C@@H]1CCC[C@H](C(=O)Nc2cc(-c3cnn4c3NCCC4)c(Cl)cn2)C1 [Example 15, (1S,3R)-3-acetamido-N-(5-chloro-4-(4,5,6,7-tetrahydropyrazolo[1,5-a]pyrimidin-3-yl)pyridin-2-yl)cyclohexanecarboxamide] | 1300 nM | 669 nM | 350 nM | 5 nM
3 | CC1(C)Cc2c(-c3cc(NC(=O)[C@H]4CCC[C@@H](NC(=O)[C@H]5CCOC5)C4)ncc3Cl)cnn2C1 [Example 24, (S)—N-((1R,3S)-3-((5-chloro-4-(5,5-dimethyl-5,6-dihydro-4H-pyrrolo[1,2-b]pyrazol-3-yl)pyridin-2-yl)carbamoyl)cyclohexyl)tetrahydrofuran-3-carboxamide] | 11 nM | 15 nM | 4 nM | < 3 nM
4 | CC1(C)Cc2c(-c3cc(NC(=O)[C@H]4CCC[C@@H](NC(=O)[C@@H]5CCOC5)C4)ncc3Cl)cnn2C1 [Example 23, (R)—N-((1R,3S)-3-((5-chloro-4-(5,5-dimethyl-5,6-dihydro-4H-pyrrolo[1,2-b]pyrazol-3-yl)pyridin-2-yl)carbamoyl)cyclohexyl)tetrahydrofuran-3-carboxamide] | 6 nM | 12 nM | < 3 nM | < 3 nM
5 | CC(=O)N[C@@H]1CCC[C@H](C(=O)Nc2cc(-c3cnn4c3OCCC4)c(Cl)cn2)C1 [Example 8, (1S,3R)-3-acetamido-N-(5-chloro-4-(6,7-dihydro-5H-pyrazolo[5,1-b][1,3]oxazin-3-yl)pyridin-2-yl)cyclohexanecarboxamide] | 690 nM | 256 nM | 120 nM | < 3 nM
6 | COC1CCn2ncc(-c3cc(NC(=O)[C@H]4CCC[C@@H](NC(C)=O)C4)ncc3Cl)c2C1 (single isomer, unassigned) [Example 72] | 360 nM | 400 nM | 111 nM | 3 nM
7 | CC1(C)Cc2c(-c3cc(NC(=O)[C@H]4CCC[C@@H](NC(=O)[C@H]5C[C@@H](O)C5)C4)ncc3Cl)cnn2C1 [Example 53, (1S,3R)—N-(5-chloro-4-(5,5-dimethyl-5,6-dihydro-4H-pyrrolo[1,2-b]pyrazol-3-yl)pyridin-2-yl)-3-(cis-3-hydroxycyclobutanecarboxamido)cyclohexanecarboxamide] | 12 nM | 13 nM | < 3 nM | < 3 nM
8 | O=C(N[C@@H]1CCC[C@H](C(=O)Nc2cc(-c3cnn4c3CCCC4)c(Cl)cn2)C1)C1COC1 [Example 67, N-((1R,3S)-3-((5-chloro-4-(4,5,6,7-tetrahydropyrazolo[1,5-a]pyridin-3-yl)pyridin-2-yl)carbamoyl)cyclohexyl)oxetane-3-carboxamide] | 62 nM | 99 nM | 19 nM | < 3 nM
9 | CC1(C)Cc2c(-c3cc(NC(=O)[C@H]4C[C@@H](O)C4)ncc3Cl)cnn2C1 [Example 27, cis-N-(5-chloro-4-(5,5-dimethyl-5,6-dihydro-4H-pyrrolo[1,2-b]pyrazol-3-yl)pyridin-2-yl)-3-hydroxycyclobutanecarboxamide] | 44 nM | 38 nM | 25 nM | < 3 nM
10 | O=C(Nc1cc(-c2cnn3c2CCCC3)c(Cl)cn1)[C@H]1CCC[C@@H](NC(=O)[C@H]2CCOC2)C1 [Example 38, (S)—N-((1R,3S)-3-((5-chloro-4-(4,5,6,7-tetrahydropyrazolo[1,5-a]pyridin-3-yl)pyridin-2-yl)carbamoyl)cyclohexyl)tetrahydrofuran-3-carboxamide] | 123 nM | 139 nM | 28 nM | < 3 nM
11 | CC(=O)N[C@@H]1CCC[C@H](C(=O)Nc2cc(-c3cnc4n3CCC4)c(Cl)cn2)C1 [Example 12, (1S,3R)-3-acetamido-N-(5-chloro-4-(6,7-dihydro-5H-pyrrolo[1,2-a]imidazol-3-yl)pyridin-2-yl)cyclohexanecarboxamide] | 830 nM | 701 nM | 350 nM | 5 nM

The remaining lines, values ahead:

Row | IC50 [1] | IC50 (MV411 cells) | IC50 (CDK9/CycT1 [2]) | IC50 (CDK9/CycT1 [3]) | Compound
12 | 1540 nM | 1780 nM | 4500 nM | 49.1 nM | O=C(Nc1cc(-c2cnc3n2CCCC3)c(Cl)cn1)[C@@H]1CCCNC1 [Example 1, (R)—N-(5-chloro-4-(5,6,7,8-tetrahydroimidazo[1,2-a]pyridin-3-yl)pyridin-2-yl)piperidine-3-carboxamide]
13 | 29 nM | 22 nM | 4 nM | < 3 nM | CC1(C)Cc2ncc(-c3cc(NC(=O)[C@H]4CCC[C@@H](NC(=O)C5(O)CC5)C4)ncc3Cl)n2C1 [Example 56, (1S,3R)—N-(5-chloro-4-(6,6-dimethyl-6,7-dihydro-5H-pyrrolo[1,2-a]imidazol-3-yl)pyridin-2-yl)-3-(1-hydroxycyclopropanecarboxamido)cyclohexanecarboxamide]
14 | > 2340 nM | 2260 nM | 139 nM | 4 nM | CC(=O)N[C@@H]1CCC[C@H](C(=O)Nc2cc(-c3cn[nH]c3CC(C)(C)CO)c(Cl)cn2)C1 [Example 82a, (1S,3R)-3-acetamido-N-(5-chloro-4-(5-(3-hydroxy-2,2-dimethylpropyl)-1H-pyrazol-4-yl)pyridin-2-yl)cyclohexane-1-carboxamide]
15 | 720 nM | 1230 nM | 60 nM | < 3 nM | CC(=O)N[C@@H]1CCC[C@H](C(=O)Nc2cc(-c3cnn4c3CCCC4O)c(Cl)cn2)C1 (stereo partly drawn) [Example 78, (1S,3R)-3-acetamido-N-(5-chloro-4-(7-hydroxy-4,5,6,7-tetrahydropyrazolo[1,5-a]pyridin-3-yl)pyridin-2-yl)cyclohexanecarboxamide]
16 | 36 nM | 92 nM | 26 nM | < 3 nM | CC(=O)N[C@@H]1CCC[C@H](C(=O)Nc2cc(-c3cnn4c3CC(C)C4)c(Cl)cn2)C1 (single isomer, unassigned) [Example 42]
17 | 104 nM | 159 nM | 51 nM | < 3 nM | CC(=O)N[C@@H]1CCC[C@H](C(=O)Nc2cc(-c3cnn4c3CCCC4)c(F)cn2)C1 [Example 63, (1S,3R)-3-acetamido-N-(5-fluoro-4-(4,5,6,7-tetrahydropyrazolo[1,5-a]pyridin-3-yl)pyridin-2-yl)cyclohexanecarboxamide]
18 | 57 nM | 67 nM | 28 nM | < 3 nM | CC(=O)N[C@@H]1CCC[C@H](C(=O)Nc2cc(-c3cnn4c3CC(C)C4)c(Cl)cn2)C1 (stereo partly drawn) [Example 40, (1S,3R)-3-acetamido-N-(5-chloro-4-(5-methyl-5,6-dihydro-4H-pyrrolo[1,2-b]pyrazol-3-yl)pyridin-2-yl)cyclohexanecarboxamide]
19 | 170 nM | 177 nM | 16 nM | < 3 nM | CC(C)(C)OC(=O)N[C@@H]1CCC[C@H](C(=O)Nc2cc(-c3cnn4c3CCCC4)c(Cl)cn2)C1 [Example 31a, tert-butyl ((1R,3S)-3-((5-chloro-4-(4,5,6,7-tetrahydropyrazolo[1,5-a]pyridin-3-yl)pyridin-2-yl)carbamoyl)cyclohexyl)carbamate]
20 | 10 nM | 14 nM | < 3 nM | < 3 nM | C[C@H](O)C(=O)N[C@@H]1CCC[C@H](C(=O)Nc2cc(-c3cnn4c3CC(C)(C)C4)c(Cl)cn2)C1 [Example 20, (1S,3R)—N-(5-chloro-4-(5,5-dimethyl-5,6-dihydro-4H-pyrrolo[1,2-b]pyrazol-3-yl)pyridin-2-yl)-3-((S)-2-hydroxypropanamido)cyclohexanecarboxamide]
21 | 174 nM | 124 nM | 22 nM | < 4 nM | CC(=O)N[C@@H]1CCC[C@H](C(=O)Nc2cc(-c3cnn4c3CC(C)(C)C4O)c(Cl)cn2)C1 (stereo partly drawn) [Example 82, (1S,3R)-3-acetamido-N-(5-chloro-4-(6-hydroxy-5,5-dimethyl-5,6-dihydro-4H-pyrrolo[1,2-b]pyrazol-3-yl)pyridin-2-yl)cyclohexane-1-carboxamide]
22 | > 2630 nM | 7220 nM | 7540 nM | 63 nM | O=C(Nc1cc(-c2cnn3c2CCCC3)ncn1)[C@H]1C[C@H](O)C1 [Example 29, trans-3-hydroxy-N-(6-(4,5,6,7-tetrahydropyrazolo[1,5-a]pyridin-3-yl)pyrimidin-4-yl)cyclobutanecarboxamide]
